# PMC9931771, “Surufatinib plus toripalimab in patients with advanced solid tumors: a single-arm, open-label, phase 1 trial” (Journal of Cancer Research and Clinical Oncology, 2022)
# Read-outs that look alike come from different tables or passages of the source.
# Assays:
# [1] = Phase 1 trial: pharmacokinetics of surufatinib and toripalimab (non-compartmental analysis); assay type: in vivo, human; conditions: for Surufatinib accumulation ratio of AUC0-τ: Cycle 2 Day 1 compared to Cycle 1 Day 1; for AUC / Cmax / Tmax / Vd/F / half-life: human, in vivo, oral; for AUC: read-out: Surufatinib AUC0-τ, geometric mean (CV%); for Cmax: read-out: Surufatinib Cmax, geometric mean (CV%); for Tmax: read-out: Surufatinib Tmax, median; for Vd/F: read-out: Surufatinib Vd/F, geometric mean (CV%); for half-life: read-out: Surufatinib t1/2, median (converted)
# Text: Blood samples were collected for PK evaluation at multiple time points on Cycle 1 Day 1, Cycle 2 Day 1, and Cycle 3 Day 1 for surufatinib and toripalimab, respectively.
# DLT events were based on the DLT evaluable population, including patients who received at least 1 cycle of treatment and completed all safety assessments within the DLT assessment window or discontinued early due to DLT in the dose-escalation stage. All safety analyses, progression-free survival (PFS), and overall survival (OS) statistics were based on the safety population, including patients who received at least 1 dose of any study drug. All efficacy endpoints, excluding PFS and OS, were analyzed based on the efficacy evaluable population, including all patients who received at least 1 dose of any study drug and had tumor assessment at baseline and post drug administration prior to initiation of new anti-cancer therapies. The PK analysis was based on the PK population, which included all patients who received at least one dose of the study drug, had at least one PK sample collected and analyzed, and had no protocol deviation that might affect the PK data.
# Two-sided 95% confidence interval (CI) of ORR and DCR were computed using the Exact (Clopper–Pearson) method. For time-to-event variables [PFS, OS, DoR (duration of response) and TTR (time to response)], median event time as well as the corresponding 95% CI were estimated using Kaplan–Meier method. All statistical analyses were performed using SAS 9.4 software. Adverse events (AEs) were graded by NCI CTCAE (Common Terminology Criteria for Adverse Events) v4.03, and coded using the Medical Dictionary for Regulatory Activities (MedDRA) v23.1. Treatment-related AEs (TRAEs) referred to AEs related to surufatinib or toripalimab, which were judged by the investigators. PK parameters were calculated by non-compartmental analysis using Phoenix WinNonlin v8.0.
# [2] = system: advanced well-differentiated extrapancreatic NET; parameters: method as in Xu et al. [2020a], [b]; conditions: phase 3 trial, ref Xu et al. [2020a], [b]; cited from earlier work
# [3] = system: tumor-associated macrophages (TAMs); parameters: method as in Zhou et al. [2017]; conditions: preclinical studies; ref Zhou et al. [2017]; cited from earlier work
# [4] = system: advanced well-differentiated pancreatic NET; parameters: method as in Xu et al. [2020a], [b]; conditions: phase 3 trial, ref Xu et al. [2020a], [b]; cited from earlier work
# [5] = surufatinib 200 mg + toripalimab 240 mg, C1D1, N 6
# [6] = surufatinib 200 mg + toripalimab 240 mg, C1D1, footnote 1 (N 4)
# [7] = surufatinib 200 mg + toripalimab 240 mg, C2D1, N 6
# [8] = surufatinib 200 mg + toripalimab 240 mg, C3D1, N 3
# [9] = surufatinib 200 mg + toripalimab 240 mg, C3D1, footnote 3 (N 2)
# [10] = surufatinib 250 mg + toripalimab 240 mg, C1D1, N 12
# [11] = surufatinib 250 mg + toripalimab 240 mg, C2D1, N 11
# [12] = surufatinib 250 mg + toripalimab 240 mg, C3D1, N 9
# [13] = surufatinib 250 mg + toripalimab 240 mg, C3D1, footnote 3 (N 8)
# [14] = surufatinib 300 mg + toripalimab 240 mg, C1D1, N 12
# [15] = surufatinib 300 mg + toripalimab 240 mg, C1D1, footnote 1 (N 10)
# [16] = surufatinib 300 mg + toripalimab 240 mg, C2D1, N 10
# [17] = surufatinib 300 mg + toripalimab 240 mg, C3D1, N 10
compound,measurement,setting,value
Cc1cc2cc(Oc3ccnc(Nc4cccc(CS(=O)(=O)NCCN(C)C)c4)n3)ccc2[nH]1 [surufatinib],Surufatinib accumulation ratio of AUC0-τ,[1]; 200 mg QD,1.8
same,Surufatinib accumulation ratio of AUC0-τ,[1]; 250 mg QD,2.0
same,Surufatinib accumulation ratio of AUC0-τ,[1]; 300 mg QD,2.1
same,AUC,"[1]; surufatinib 200 mg + toripalimab 240 mg, C1D1, N 4",1840 ng·h/mL
same,Cmax,[1]; [5],277 ng/mL
same,Tmax,[1]; [5],1.98 h
same,Vd/F,[1]; [6],926 L
same,half-life,[1]; [6],4.49 h
same,AUC,"[1]; surufatinib 200 mg + toripalimab 240 mg, C2D1, N 3",3010 ng·h/mL
same,Cmax,[1]; [7],268 ng/mL
same,Tmax,[1]; [7],2.97 h
same,half-life,"[1]; surufatinib 200 mg + toripalimab 240 mg, C2D1, footnote 4 (N 3)",13.1 h
same,AUC,"[1]; surufatinib 200 mg + toripalimab 240 mg, C3D1, N 2",2300 ng·h/mL
same,Cmax,[1]; [8],239 ng/mL
same,Tmax,[1]; [8],1.98 h
same,Vd/F,[1]; [9],1080 L
same,half-life,[1]; [9],10.1 h
same,AUC,[1]; [10],1840 ng·h/mL
same,Cmax,[1]; [10],289 ng/mL
same,Tmax,[1]; [10],1.6 h
same,Vd/F,[1]; [10],1660 L
same,half-life,[1]; [10],11.1 h
same,AUC,[1]; [11],3610 ng·h/mL
same,Cmax,[1]; [11],407 ng/mL
same,Tmax,[1]; [11],2 h
same,half-life,[1]; [11],11.9 h
same,AUC,"[1]; surufatinib 250 mg + toripalimab 240 mg, C3D1, N 8",2400 ng·h/mL
same,Cmax,[1]; [12],310 ng/mL
same,Tmax,[1]; [12],1.93 h
same,Vd/F,[1]; [13],2540 L
same,half-life,[1]; [13],15.6 h
same,AUC,"[1]; surufatinib 300 mg + toripalimab 240 mg, C1D1, N 10",1880 ng·h/mL
same,Cmax,[1]; [14],228 ng/mL
same,Tmax,[1]; [14],2 h
same,Vd/F,[1]; [15],1620 L
same,half-life,[1]; [15],8.12 h
same,AUC,"[1]; surufatinib 300 mg + toripalimab 240 mg, C2D1, N 9",3670 ng·h/mL
same,Cmax,[1]; [16],281 ng/mL
same,Tmax,[1]; [16],2.97 h
same,half-life,"[1]; surufatinib 300 mg + toripalimab 240 mg, C2D1, footnote 4 (N 8)",14.4 h
same,AUC,[1]; [17],3500 ng·h/mL
same,Cmax,[1]; [17],361 ng/mL
same,Tmax,[1]; [17],2 h
same,Vd/F,[1]; [17],1510 L
same,half-life,[1]; [17],12.2 h
same,"Surufatinib CL/F, geometric mean (CV%)",[1]; [6],89.5 (23.9) ^1 L/h
same,"Surufatinib CL/F, geometric mean (CV%)",[1]; [9],87.0 (24.3) ^3 L/h
same,"Surufatinib CL/F, geometric mean (CV%)",[1]; [10],110 (34.6) L/h
same,"Surufatinib CL/F, geometric mean (CV%)",[1]; [13],104 (45.0)^3 L/h
same,"Surufatinib CL/F, geometric mean (CV%)",[1]; [15],134 (30.7) ^1 L/h
same,"Surufatinib CL/F, geometric mean (CV%)",[1]; [17],84.3 (34.9) L/h
same,DCR,[2],86.5%
same,ORR,[2],10.3%
same,Effect on M1 TAMs,[3],increased
same,Effect on M2 tumor-associated macrophages (TAMs),[3],decreased
same,DCR,[4],80.8%
same,ORR,[4],19.2%
